PubChem BioAssay (NCI)
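Method: 48-hour compound exposure of cells in 96-well plates, five concentrations, linear interpolation of endpoints. GI50 = concentration required for 50% inhibition of growth. At the TGI there is no net growth.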

Columns and labels:
Test in all cases: NCI tumour cell line growth inhibition, 48 h
[1] = system: MCF7 breast
[2] = system: A549 NSCLC
[3] = system: K-562 leukemia
[4] = system: HOP-62 NSCLC
[5] = system: SF-539 CNS
[6] = system: PC-3 prostate
[7] = system: OVCAR-8 ovarian
[8] = system: NCI/ADR-RES ovarian
[9] = system: UO-31 renal
[10] = system: SN12C renal

Row | Compound | GI50 [1] [µM] | TGI [1] [µM] | GI50 [2] [µM] | TGI [2] [µM] | GI50 [3] [µM] | TGI [3] [µM] | GI50 [4] [µM] | TGI [4] [µM] | GI50 [5] [µM] | TGI [5] [µM] | GI50 [6] [µM] | TGI [6] [µM] | GI50 [7] [µM] | TGI [7] [µM] | GI50 [8] [µM] | TGI [8] [µM] | GI50 [9] [µM] | TGI [9] [µM] | GI50 [10] [µM] | TGI [10] [µM]
1 | CN(Cc1cc(Br)cc(Br)c1O)Cc1cc(Br)cc(Br)c1O | 2.96 | 15 | 2.19 | 15.4 | 0.603 | 20 | 1.74 | 18.1 | 2.61 | 20.2 | 4.37 | 25 | 1.94 | 16.1 | 1.83 | 12.6 | 1.08 | 14.6 | 2.5 | 16.7
2 | COc1cc(-c2nc3ccccc3s2)ccc1NC(=O)COc1ccc(Cl)cc1 | 5.05 | > 100 | 3.07 | > 100 | 5.35 | > 100 | 4.15 | 34.3 | 61.6 | > 100 | 3.51 | > 100 | 2.79 | 46.6 | 3.22 | 27.6 | 1.49 | > 100 | 5.29 | > 100
3 | C[C@]12CC[C@H](O)C[C@H]1CC[C@@H]1[C@@H]2CC[C@]2(C)[C@@H](C3=CC(=O)OC3)[C@@H](O)C[C@]12O |  | 11.1 |  | 1.65 |  | > 52.2 |  | 2.48 |  | 2.28 |  | 3.1 |  | 14.6 |  | 3.9 |  | 2.26 |  | 3.25
4 | COC1CCN(C(=O)c2cc(Cc3n[nH]c(=O)c4ccccc34)ccc2F)CC1 | 60.8 | > 100 | 58.9 | > 100 | > 89.1 | > 100 | 33.4 | > 100 | > 100 | > 100 | > 87.6 | > 100 | > 73.2 | > 100 | > 76.8 | > 100 | 84.5 | > 100 | 67.5 | > 100
5 | Cc1ccc(C(SCC(N)C(=O)O)(c2ccc(C)cc2)c2ccc(C)cc2)cc1 (stereo not given) | 0.895 | 18.4 | 2.62 | 16.8 | 2.96 | 12.3 | 6.52 | 22.3 | 1.22 | 7.5 | 2.94 | 20.1 | 2.36 | 17.4 | 15 | 53.7 | 9.79 | 40.4 | 2.74 | 18.4
6 | CS(=O)(=O)Nc1ccc(-c2cc(-c3ccccc3)cc(C(N)=O)c2N)cc1 | > 20.5 | > 25 | 20.2 | > 25 | 15.8 | > 25 | > 25 | > 25 | > 25 | > 25 | 14.2 | > 25 | > 22.6 | > 25 | > 25 | > 25 | 14.7 | > 25 | > 25 | > 25
7 | NC(=O)c1ccc(NN=O)nc1 |  | > 100 |  | > 100 |  | > 100 |  | > 100 |  | > 100 |  | > 100 |  | > 100 |  | > 100 |  | > 100 |  | > 100
8 | COc1cc2nc(SCC(=O)Nc3cc(OC)c(OC)c(OC)c3)n(Cc3ccccc3)c(=O)c2cc1OC | 7.93 | > 100 | 5.13 | > 100 | > 100 | > 100 | 2.03 | 4.28 | 2.37 | 5.78 | 3.2 | > 100 | 3.46 | 34.9 | 3.3 | 11.6 | 1.95 | 8.85 | 4.7 | > 100
9 | COc1ccc2c(c1)[n+](=O)c(C(=O)c1ccco1)c(C(F)(F)F)n2[O-] | 3.82 | > 100 | 2.56 | 16.6 | 5.24 | > 100 | 2.86 | 21.6 | 3.41 | 15.6 | 4.64 | > 100 | 2.23 | 9.41 | 2 | 6.57 | 0.387 | 2.51 | 3.01 | 11.8
10 | O=[N+]([O-])c1ccccc1N/N=C\c1c[nH]c2ccccc12 | 0.85 | > 100 | 20.2 | > 100 | 4.53 | > 100 | 13.8 | 31.1 | 12.4 | 31.2 | 4.25 | > 100 | 12 | 29.4 | 8.85 | > 100 | 0.658 | > 65.9 | 10.2 | > 100
11 | Clc1ccc2c(c1)N(c1ncnc3ccc(-c4cnc5[nH]ccc5c4)cc13)CC2 | 0.54 | > 100 | 2.61 | 17.7 | 0.542 | > 100 | 2.45 | 17.4 | 6.8 | 48.7 | 2.28 | 23.6 | 3.25 | 29.5 | 1.99 | 69 | 0.484 | 16.7 | 1.95 | 20
12 | CCOC(=O)c1c(C)n2c(=O)cc(C)c3c(O)c(O)cc1c32 | 6.61 | > 100 | 5.56 | 49.1 | 3.46 | 33.3 | 38.4 | > 100 | 16.6 | 55.3 | 4.23 | > 100 | 2.7 | 9.32 | 28.3 | 89.4 | 5.7 | > 100 | 3.85 | 24.6
13 | NC1CCC(Nc2nc(NCc3ccc(-c4cccs4)nc3)c3ncn(C4CCCC4)c3n2)CC1 (stereo not given) | 0.0301 | 1.14 | 0.0237 | 2.04 | 0.0397 | 0.777 | 0.0276 | 0.0987 | 0.157 | 0.395 | 0.0337 | 1.04 | 0.0504 | 12.9 | 0.244 | 4.29 | 0.203 | 0.661 | 0.0341 | 1.81
